Assay results: patent publication US20120077851A1, “Urea Derivatives as Kinase Inhibitors” (MEDOLUTION LIMITED, priority 2009, published 2012)

Test: Pharmacokinetics of Compound A and Regorafenib in rats
Type: in vivo
Conditions: compared to Regorafenib

With `[2H]C([2H])([2H])NC(=O)c1cc(Oc2ccc(NC(=O)Nc3ccc(Cl)c(C(F)(F)F)c3)c(F)c2)ccn1` [Compound A, 4-(4-(3-(4-chloro-3-(trifluoromethyl)phenyl)ureido)-3-fluorophenoxy)-N-d3-methylpicolinamide] as the compound, how does the T1/2 read?
Its T1/2 is “prolonged T1/2”.

And the clearance?
Its clearance is “significant slower clearance”.

And the pharmacokinetic profile (FIG. 1, rats)?
The pharmacokinetic profile was “better pharmacokinetic profile”.

What about the exposure (oral administration route at equal dose) of the same compound?
The exposure was “improved exposure”.
